Data published in US10159678B2, “Methods to decrease susceptibility to asthmatic bronchoconstriction” (Cornell University, priority 2012, dated 2018).

Assays:
CFTR [1] = molecular target: T1, CFTR (Mus musculus, UniProt P26361); experiment: Airway resistance to methacholine after intranasal GlyH-101 in Sptlc2+/+ and Sptlc2+/- mice; format: in vivo; details: GlyH-101 (5 μg) intranasally, after 3 h
T1 construct: administered directly to the respiratory tract; from tissue; host or cells: live Sptlc2+/+ and Sptlc2+/- mice (airways)
Experimental: Mice were anaesthetized with pentobarbital (100 mg/kg; American Pharmaceutical Partners, Los Angeles, Calif.), tracheostomized and mechanically ventilated at a rate of 150 breaths/min, a tidal volume of 10 ml/kg and positive end-expiratory pressure of 2-3 cm H2O using a computer-controlled animal ventilator (Sireq, Montreal, Canada). Three perturbations were used to assess baseline respiratory mechanics and the effects were analyzed using the Flexivent software (Scireq): • (1) Static compliance was determined using the Salazar-Knowles equation (Colebatch et al., J Appl Physiol 46:387-393 (1971) to the plateau pressure measurements obtained between total lung capacity and functional residual capacity; • (2) Single-frequency forced oscillations were applied to determine tissue resistance (R), elastance (E) and dynamic compliance (C) using a single compartment model; • (3) Broadband forced oscillations were applied to determine Newtonian (airway) resistance (Rn), tissue damping (G) and tissue elastance using a constant phase model. Rn and G were also assessed following increasing doses of methacholine (3.125, 12.5 and 50 mg/ml). […]

[2] = tested on: non-cystic fibrosis tracheal cells; experiment: Sphinganine in cell lysates by LC-MS/MS after GlyH-101; format: cell-based; details: GlyH-101 (50 μM) in culture media, non-CF airway epithelial cells; FIG. 6A
Experimental: (§1) GlyH-101 (50 μM) was added to culture media of cystic fibrosis tracheal cells, non-cystic fibrosis tracheal cells or A549 cells (a lung epithelial cell line).
(§2) Sphinganine, an intermediate of de-novo sphingolipid synthesis, was quantified in cell lysates by LC-MS/MS.

A549 cells = experiment: as above; format: cell-based; details: GlyH-101 (50 μM), A549 lung epithelial cell line; FIG. 6B
Experimental: as §1, §2

CFTR [3] = molecular target: T1, CFTR; experiment: Myograph contractile response of bronchial rings from Sptlc2+/- or Sptlc2+/+ mice with GlyH-101 in bath; details: 2 hr in bath, methacholine (10 mM), FIG. 6C
Experimental: In another experiment, bronchial rings were isolated from Sptlc2^+/− or Sptlc2^+/+ mice and mounted in a myograph. CFTR inhibitor GlyH-101 or the solvent DMSO (control) were added to the bath solution. After 2 hr contractile responses of the rings stimulated with methacholine (10 mM) were determined.

[4] = tested on: cystic fibrosis tracheal cells; experiment: Sphinganine in cell lysates by LC-MS/MS after GlyH-101; format: cell-based, human; details: GlyH-101 (50 μM) in culture medium, cells from the trachea of cystic fibrosis patients; FIG. 6A
Experimental: as §1, §2

[5] = tested on: Human bronchial epithelial cells; experiment: Sphingolipids by mass spectrometry in human bronchial epithelial cells; format: cell-based; details: fenretinide (10 μM) for 3 hours; FIG. 7
Experimental: FIG. 7 illustrates that fenretinide increases metabolites of de-novo sphingolipid synthesis. Human bronchial epithelial cells were incubated with myriocin (1 μM) or fenretinide (10 μM) for 3 h in serum free medium supplemented with fatty acid-free bovine serum albumin (0.1%). Cell lysates were analyzed by mass spectrometry. The sums (mean+SEM) of all dihydroceramides are shown as a reflection of the activity of the de-novo sphingolipid synthesis pathway.
(§3) Human bronchial epithelial cells were incubated with either myriocin (1 μM) or fenretinide (10 μM) for 3 hours. The amounts of sphingolipids were then quantified by mass spectrometry.

[6] = tested on: Human bronchial epithelial cells; experiment: Viability of human bronchial epithelial cells; format: cell-based; details: myriocin (1 μM) or fenretinide (10 μM) for 3 hours
Experimental: as §3
The viability of the cells was not affected by fenretinide or myriocin. Fenretinide can induce cell death at doses as low as 5 μM in cancer cells (Wang et al. Cancer Res 61:5102-5 (2001)), but toxicity is usually not seen in doses up to 12 μM in non-malignant cells (Li et al., Cancer Letters 284:175-81 (2009); O'Donnell et al., Leukemia 16:902-10 (2002)). Accordingly, low doses of fenretinide may effectively alleviate bronchial hyper reactivity.

non-malignant cells = non-malignant cells (Li et al. 2009; O'Donnell et al. 2002); cited from earlier work
cancer cells = cancer cells (Wang et al. 2001); cited from earlier work

T1 sequence (P26361 whole entry): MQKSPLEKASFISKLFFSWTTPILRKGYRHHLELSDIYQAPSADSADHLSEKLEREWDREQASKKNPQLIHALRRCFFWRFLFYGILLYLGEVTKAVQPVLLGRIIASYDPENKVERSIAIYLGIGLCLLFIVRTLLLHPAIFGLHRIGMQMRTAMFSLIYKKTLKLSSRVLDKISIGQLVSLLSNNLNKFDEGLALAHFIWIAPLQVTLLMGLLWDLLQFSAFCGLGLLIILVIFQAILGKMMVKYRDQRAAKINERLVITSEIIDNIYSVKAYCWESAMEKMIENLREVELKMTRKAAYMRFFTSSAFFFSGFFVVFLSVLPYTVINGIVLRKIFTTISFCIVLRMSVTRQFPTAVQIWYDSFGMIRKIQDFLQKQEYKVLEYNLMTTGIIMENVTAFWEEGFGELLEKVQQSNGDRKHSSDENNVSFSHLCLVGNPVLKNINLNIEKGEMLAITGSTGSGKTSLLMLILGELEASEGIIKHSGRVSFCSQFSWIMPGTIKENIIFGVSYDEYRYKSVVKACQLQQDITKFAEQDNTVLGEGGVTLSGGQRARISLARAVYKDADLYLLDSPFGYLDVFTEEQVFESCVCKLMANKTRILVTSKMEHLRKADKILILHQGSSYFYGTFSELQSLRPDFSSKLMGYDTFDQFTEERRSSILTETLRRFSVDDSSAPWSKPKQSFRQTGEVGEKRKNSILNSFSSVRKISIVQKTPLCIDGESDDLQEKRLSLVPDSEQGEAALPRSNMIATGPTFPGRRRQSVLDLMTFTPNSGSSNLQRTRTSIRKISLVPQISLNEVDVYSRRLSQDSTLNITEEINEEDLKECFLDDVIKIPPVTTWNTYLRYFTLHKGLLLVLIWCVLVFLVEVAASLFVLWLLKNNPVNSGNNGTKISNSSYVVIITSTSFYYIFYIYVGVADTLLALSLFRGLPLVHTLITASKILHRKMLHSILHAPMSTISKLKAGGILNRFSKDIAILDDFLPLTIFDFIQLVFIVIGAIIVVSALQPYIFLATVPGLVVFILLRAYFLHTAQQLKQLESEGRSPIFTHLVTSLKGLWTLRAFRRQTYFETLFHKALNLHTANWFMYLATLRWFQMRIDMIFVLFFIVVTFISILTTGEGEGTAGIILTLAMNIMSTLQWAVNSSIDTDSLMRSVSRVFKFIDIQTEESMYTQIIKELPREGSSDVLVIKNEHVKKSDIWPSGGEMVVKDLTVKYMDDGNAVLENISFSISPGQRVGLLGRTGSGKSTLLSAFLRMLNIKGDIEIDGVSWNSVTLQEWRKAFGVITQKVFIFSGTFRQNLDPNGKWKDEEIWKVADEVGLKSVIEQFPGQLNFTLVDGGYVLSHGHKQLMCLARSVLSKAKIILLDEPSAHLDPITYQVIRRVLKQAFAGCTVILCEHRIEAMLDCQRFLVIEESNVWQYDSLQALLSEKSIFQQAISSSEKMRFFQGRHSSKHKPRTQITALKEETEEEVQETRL

SMILES: O=C(CNc1ccc2ccccc2c1)N/N=C/c1cc(Br)c(O)c(Br)c1O [GlyH-101, (Naphthalen-2-ylamino)-acetic acid (3,5-dibromo-2,4,-dihydroxybenzylidene)-hydrazide]
- airway resistance after methacholine (CFTR [1]; Sptlc2+/- mice, FIG. 6E): alleviated
- bronchial reactivity after methacholine (CFTR [1]; control Sptlc2+/+ mice, FIG. 6D): no effect
- sphinganine level [2]: increases
- sphinganine level (A549 cells): increases
- contractile response of bronchial rings upon methacholine (CFTR [3]; rings from Spt-deficient mice): decreased
- contractile response of bronchial rings (CFTR [3]; rings from wild type mice (Sptlc+/+)): increased contractile response
- sphinganine level [4]: not altered

SMILES: CC1=C(/C=C/C(C)=C/C=C/C(C)=C/C(=O)Nc2ccc(O)cc2)C(C)(C)CCC1 [fenretinide, N-(4-hydroxyphenyl)retinamide]
- sum of all dihydroceramides [5]: increased
- viability of the cells [6]: not affected
- doses at which toxicity is usually not seen (non-malignant cells): up to 12 μM
- doses that can induce cell death (cancer cells): ≥ 5 µM
